According to patent publication US20240082273A1, “NEUROKININ INHIBITORS SUCH AS APREPITANT FOR TREATING NON SMALL CELL LUNG CARCINOMA OR BREAST CANCER WITHOUT MUTATIONS” (priority 2020, published 2024):

Assays:
[1] = test system: A549; assay: MTT proliferation, A549; assay type: cell-based, human; settings: 48 hours
From the text: (§1) EGFR, ALK and ROS1 are key molecular factors that may be used to determine pathological classification, prognosis, therapeutics and behaviour in patients with lung cancer. EGFR, ALK and ROS1 are biomarkers routinely analysed in the clinical practice of the management of patients with NSCLC. NSCLC with molecular profile EGFR-/ALK-/ROS1- presents a better response to treatment with the NK1 inhibitor aprepitant, compared to lung cancer with different profiles (in particular, EGFR+/ALK-/ROS1- and EGFR-/ALK+/ROS1-, in which EGFR and ALK respectively contain mutations relative to their wild type gene). Commercial lines of lung cancer were used as shown in Table 2 together with their molecular profile. The molecular profile of the cancer cell lines was determined by sequencing and can be consulted in the Cancer Cell Line Encyclopaedia database of public access available at the url: https://portals.broadinstitute.org/ccle All cells were cultured in wells under vendor-recommended conditions and exposed to different concentrations of aprepitant for 48 hours. In each case a group of wells of cells were used to which no treatment was applied and which were considered as controls. At 48 hours the number of cells was measured. Eight cell lines of human were used for the study of NK1 inhibitors (Table 3). All of them were maintained in culture in their respective culture media (Gibco,Thermo Fisher Scientific) supplemented with 10% foetal bovine serum (FBS) (Gibco, Thermo Fisher Scientific), 2 mM L-Glutamine (Gln) (Sigma-Aldrich, Merk), and […] and […] Gibco, Thermo Fisher Scientific) in a humidified incubator at 37° C. and 5% CO2. Cell culture media used are Dulbecco's Modified Eagle Medium (DMEM), and RPMI Medium 1640 (RPMI-1640). To measure cell viability, the cytotoxicity of drugs in culture was evaluated using the 3-(4,5-Dimethyl-2-thiazolyl)-2,5-diphenyl-2H-tetrazolium bromide (MTT) reduction assay. This assay assesses cell viability through the indirect measurement of the activity of reductases that convert yellow soluble MTT into purple insoluble formazan salts. As MTT can only be reduced when these enzymes are active, the reaction is used as an indicator of the cell metabolic competence and, therefore, of viability. A variable number of cells (depending on the cell line) were seeded in 96 multi-well plates and grown during 24 hours. The following day, the culture medium was aspirated and fresh culture medium with the drug dissolved was added to the wells. After 24 hours or 48 hours cell viability was measurement by adding 10 μl of a 5 mg/ml MTT solution (M5655; Sigma-Aldrich) and 100 μl of HCl 0.01M-SDS 10% solution 4 hours later. After 24 hours, the absorbance was measured at 595 nm, using a multi-well plate reader (iMark, Bio-rad). Each condition was tested 5 times, obtaining 5 values of absorbance. All sample measurements were corrected using the blank (culture medium without cells) mean absorbance value, and normalized to positive control to determinate relative cell viability for each condition at 24 and 48 hours.

[2] = test system: human primary triple negative breast carcinoma (ER−/PR−/HER2−) tumour cells; assay: Primary triple negative breast carcinoma xenograft mouse model; assay type: in vivo, nu/nu Balb/c nude mice; settings: for Mean proliferation: 28 days
Protocol: Immunocompromised female mice, 5-6 weeks of age were used, nu/nu Balb/c nude mice, provided by Harlan Iberica Barcelona (Spain). They were kept at 24° C. and in sterile conditions with food and water “ad libitum”. They were injected with 2×10^7 tumour cells, corresponding to human primary triple negative breast carcinoma (i.e. tumour cells having a ER−/PR−/HER2− molecular profile) in 200 μl of PBS subcutaneous route. The tumour size was measured and the mice were evaluated for their state of health and weight daily. The mice were randomised in groups when the tumours reached a volume of 75 mm^3. One of the groups was treated with 200 μl of placebo (control group) and the eight remaining groups with doses of 1 to 100 mg per kilogram of weight and day of the NK1 inhibitor aprepitant. Five animals were treated per group, during 28 days. All the mice were sacrificed at the end of the experiment.

[3] = test system: lung cancer cell lines with molecular profile EGFR−/ALK+/ROS1− (H322, H332); assay: MTT proliferation, NSCLC cell lines with EGFR−/ALK+/ROS1− profile; assay type: cell-based, human; settings: 48 hours
From the text: as §1

[4] = daily dosing from 625 to 875 mg; cited from earlier work

**Q.** For C[C@@H](O[C@H]1OCCN(Cc2nc(=O)[nH][nH]2)[C@H]1c1ccc(F)cc1)c1cc(C(F)(F)F)cc(C(F)(F)F)c1 [Aprepitant], which Mean proliferation ([1]; aprepitant 1 μM) is on record?
**A.** 96.56

**Q.** And the Mean proliferation ([1]; aprepitant 3 μM)?
**A.** 94.80

**Q.** And the Mean proliferation ([1]; aprepitant 5 μM)?
**A.** 64.40

**Q.** What about the Mean proliferation ([1]; aprepitant 10 μM) of the same molecule?
**A.** 52.17

**Q.** What about the Mean proliferation ([1]; aprepitant 20 μM) of the same molecule?
**A.** 40.48

**Q.** And the Mean proliferation ([1]; aprepitant 30 μM)?
**A.** 35.59

**Q.** And the Mean proliferation ([1]; aprepitant 40 μM)?
**A.** 21.55

**Q.** And the Mean proliferation ([1]; aprepitant 50 μM)?
**A.** 9.17

**Q.** And the Mean proliferation ([1]; aprepitant 60 μM)?
**A.** 11.36

**Q.** What about the “Mean proliferation” value ([2]; aprepitant 1 mg/kg/day) of the same molecule?
**A.** 104

**Q.** And the “Mean proliferation” value ([2]; aprepitant 3 mg/kg/day)?
**A.** 108

**Q.** What about the “Mean proliferation” value ([2]; aprepitant 5 mg/kg/day) of the same molecule?
**A.** 112

**Q.** And the “Mean proliferation” value ([2]; aprepitant 8 mg/kg/day)?
**A.** 110

**Q.** What about the “Mean proliferation” value ([2]; aprepitant 10 mg/kg/day) of the same molecule?
**A.** 99

**Q.** What about the “Mean proliferation” value ([2]; aprepitant 20 mg/kg/day) of the same molecule?
**A.** 76

**Q.** What about the “Mean proliferation” value ([2]; aprepitant 30 mg/kg/day) of the same molecule?
**A.** 65

**Q.** What about the “Mean proliferation” value ([2]; aprepitant 40 mg/kg/day) of the same molecule?
**A.** 61

**Q.** And the “Mean proliferation” value ([2]; aprepitant 50 mg/kg/day)?
**A.** 56

**Q.** And the “Mean proliferation” value ([2]; aprepitant 60 mg/kg/day)?
**A.** 54

**Q.** And the “Mean proliferation” value ([2]; aprepitant 70 mg/kg/day)?
**A.** 50

**Q.** What about the “Mean proliferation” value ([2]; aprepitant 80 mg/kg/day) of the same molecule?
**A.** 50

**Q.** And the “triple negative human primary breast carcinoma proliferation in a xenograft model” value ([2]; dose-dependent fashion)?
**A.** reduces

**Q.** And the Mean proliferation ([3]; aprepitant 1 μM)?
**A.** 102.88

**Q.** What about the Mean proliferation ([3]; aprepitant 3 μM) of the same molecule?
**A.** 92.41

**Q.** What about the Mean proliferation ([3]; aprepitant 5 μM) of the same molecule?
**A.** 105.07

**Q.** And the Mean proliferation ([3]; aprepitant 10 μM)?
**A.** 108.06

**Q.** And the Mean proliferation ([3]; aprepitant 20 μM)?
**A.** 99

**Q.** What about the Mean proliferation ([3]; aprepitant 30 μM) of the same molecule?
**A.** 88.22

**Q.** And the Mean proliferation ([3]; aprepitant 40 μM)?
**A.** 68.94

**Q.** And the Mean proliferation ([3]; aprepitant 50 μM)?
**A.** 37.3

**Q.** What about the Mean proliferation ([3]; aprepitant 60 μM) of the same molecule?
**A.** 11.67

**Q.** And the plasma trough level [4]?
**A.** 2.65 µg/mL

**Q.** What about the “plasma trough level (equivalent)” value [4] of the same molecule?
**A.** 5 µM
